Laboratory results published in US20240398781A1, “SPIROCYCLIC CYCLIC MODULATORS OF CHOLESTEROL BIOSYNTHESIS AND THEIR USE FOR PROMOTING REMYELINATION” (GENENTECH, INC., priority 2021, published 2024).
Like-named read-outs stand apart in the source and are kept apart here.

Tests used:
[1] = system: EBP (zymostenol accumulation in EpiSC-derived OPCs); assay: GC/MS-based sterol profiling, zymostenol accumulation in OPCs; type: cell-based, mouse; conditions: EpiSC-derived OPCs, 24 hr treatment, 8 doses from 0.15 nM to 333 nM, read-out: Zymostenol GCMS EC50
Outline: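 EpiSC-derived OPCs (100,000/well) were treated 24 h in N2B27 without growth factors. Sterols were TMS-derivatized and analysed by GC/MS full-scan EI, quantified against cholesterol-d7. Zymostenol was normalized to the level after 24 h with 100 nM positive control reference.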

[2] = system: EpiSC-derived OPCs; assay: In vitro phenotypic screening of OPCs (MBP staining, high-content imaging); type: cell-based, mouse; conditions: percentage of MBP+ oligodendrocytes, 3 days, 0.5 nM to 1000 nM, read-out: OPC EC50
Description: To assess effects of treatments on OPCs, all treatments were assayed in two or more independent platings of epiblast stem cell-derived OPCs (EpiSC). EpiSC-derived OPCs were obtained using in vitro differentiation protocols and culture conditions described previously (Najm et al, 2011, Nature Methods). OPCs were expanded and frozen down in aliquots. OPCs were thawed into growth conditions for at least one passage before use in further assays.
EpiSC-derived OPCs were grown and expanded in poly-L-ornithine (PO) and laminin-coated flasks in N2B27 media (DMEM/F12 (Gibco), N2-MAX (R&D Systems), B-27 (ThermoFisher), and GlutaMax (Gibco)) supplemented with FGF2 ([…], R&D systems, 233-FB-025) and PDGF-AA ([…], R&D systems, 233-AA-050) before harvesting for experiments. The cells were seeded onto poly-L-ornithine or poly-D-lysine coated CellCarrier Ultra plates (PerkinElmer) coated with laminin (Sigma, L2020) at a density of 150,000/cm^2 in N2B27 media without growth factors. For dose-response testing, a 1000× compound stock in dimethyl sulphoxide (DMSO) was added to assay plates, resulting in 8-point dose curves with final concentrations between 1000 nM and 0.5 nM. Positive controls and DMSO vehicle controls were included in each assay plate. Cells were incubated under standard conditions (37° C., 5% CO2) for 3 days and fixed with 4% paraformaldehyde (PFA) in phosphate buffered saline (PBS) for 20 min. Fixed plates were washed with PBS, permeabilized with 0.1% Triton X-100, and blocked with 10% donkey serum (v/v) in PBS for 40 min. Then, cells were labelled with MBP antibodies (Abcam, ab7349; 1:200) for 2 h at room temperature, washed with PBS, and stained with Alexa Fluor conjugated secondary antibodies (1:500) for 45 min. Nuclei were visualized by DAPI staining (Sigma; 1 μg/ml), followed by further PBS washes.
Cells and cell culture plates were imaged on the Operetta High Content Imaging and Analysis system (PerkinElmer). Analysis (PerkinElmer Harmony and Columbus software) began by identifying intact nuclei stained by DAPI. The peri-nuclear region of each cell was then cross-referenced with the mature myelin protein (MBP) stain to identify oligodendrocyte nuclei, and from this the percentage of oligodendrocytes was calculated. EC50 values were calculated using The Levenberg-Marquardt algorithm to fit a Hill equation to dose-response data (0.5 nM to 1000 nM).

[3] = molecular target: human emopamil binding protein and human 7-dehydrocholesterol reductase co-expressing cells (hEBP-DHCR7 membrane) (Homo sapiens (Human), UniProt Q15125); assay: Radioligand filter binding assay on hEBP-DHCR7 membrane; conditions: [3H]-(S)-6-(2-Methyl-3-(6-(trifluoromethyl)pyridin-3-yl)propyl)-2-thia-6-azaspiro[3.4]octane 2,2-dioxide radioligand, HEK293 membrane co-expressing hEBP and hDHCR7
Outline: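 HEK293 cells transiently co-expressing human EBP and DHCR7 supplied whole-cell membranes (10 μg/well), incubated 3 h at 22 °C with [3H]-labelled spiro-octane dioxide ligand (added at 25 nM) and compound (0.06-5000 nM final, 8 doses, n=2). Bound ligand was collected on PEI-treated GF/B filters and counted by scintillation. IC50 was Hill-fitted from % inhibition and reported as Ki.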

Sequence of human emopamil binding protein and human 7-dehydrocholesterol reductase co-expressing cells (hEBP-DHCR7 membrane) (Q15125 whole entry): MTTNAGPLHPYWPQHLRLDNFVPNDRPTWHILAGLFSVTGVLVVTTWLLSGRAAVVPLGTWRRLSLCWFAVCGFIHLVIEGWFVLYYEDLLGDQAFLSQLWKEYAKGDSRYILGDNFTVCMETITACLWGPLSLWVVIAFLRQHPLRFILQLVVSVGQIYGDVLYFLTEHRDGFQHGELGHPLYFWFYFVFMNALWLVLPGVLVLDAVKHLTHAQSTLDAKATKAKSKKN

Compound	EC50 ([1]; Mus musculus, 24 h)	EC50 ([2]; Mus musculus, 72 h)	Ki [3]	EC50 [2]	EC50 [1]
CC(C)n1nc(C(F)(F)F)cc1[C@@H]1CCC[C@H](N2CCC3(C2)CS(=O)(=O)C3)C1 (single isomer, unassigned) [61C*]	7.5 nM	53 nM	31 nM		
O=S1(=O)CC[C@@]2(CCCN([C@H]3CC[C@H](c4ccc(C(F)(F)F)cn4)CC3)C2)C1 (single isomer, unassigned) [68B*]	5.8 nM	22 nM	41 nM		
O=S1(=O)CC[C@@]2(CCCN([C@H]3CC[C@@H](c4cc(C(F)(F)F)nn4C4CC4)CC3)C2)C1 (single isomer, unassigned) [69A*]	2.1 nM	7.5 nM	24 nM		
O=S1(=O)CC[C@]2(CCCN([C@H]3CC[C@@H](c4cc(C(F)(F)F)nn4C4CC4)CC3)C2)C1 (single isomer, unassigned) [69C*]	6 nM	44 nM	27 nM		
CC(C)n1nc(C(F)(F)F)cc1[C@@H]1CCC[C@H](N2CCC3(CC2)CS(=O)(=O)C3)C1 (single isomer, unassigned) [78B*]	22 nM	140 nM	26 nM		
CC(C)n1nc(C(F)(F)F)cc1[C@H]1CCC[C@@H](N2CCC3(CC2)CS(=O)(=O)C3)C1 (single isomer, unassigned) [78C*]	28 nM	273 nM	790 nM		
CC(C)n1nc(C(F)(F)F)cc1[C@H]1CCC[C@H](N2CCC3(CC2)CS(=O)(=O)C3)C1 (single isomer, unassigned) [78D*]	19 nM	124 nM	37 nM		
O=S1(=O)CCC2(CCN([C@H]3CC[C@H](c4ccc(C(F)(F)F)cn4)CC3)C2)CC1 [84B*, 2-((1s,4s)-4-(5-(Trifluoromethyl)pyridin-2-yl)cyclohexyl)-8-thia-2-azaspiro[4.5]decane 8,8-dioxide]	27 nM	130 nM	69 nM		
O=S1(=O)CC2(CCN([C@H]3CC[C@@H](c4ccc(C(F)(F)F)cc4)C3)C2)C1 [Compound 1A, 6-((1S,3R)-3-(4-(trifluoromethyl)phenyl)cyclopentyl)-2-thia-6-azaspiro[3.4]octane 2,2-dioxide]	4.9 nM	17 nM	14.8 nM		
O=S1(=O)CC2(CCN([C@@H]3CC[C@H](c4ccc(C(F)(F)F)cc4)C3)C2)C1 [Compound 1C, 6-((1R,3S)-3-(4-(trifluoromethyl)phenyl)cyclopentyl)-2-thia-6-azaspiro[3.4]octane 2,2-dioxide]	1.4 nM	1.8 nM	11 nM		
O=S1(=O)CC2(CCN([C@H]3CC[C@H](c4ccc(C(F)(F)F)cc4)C3)C2)C1 [Compound 1D, 6-((1S,3S)-3-(4-(trifluoromethyl)phenyl)cyclopentyl)-2-thia-6-azaspiro[3.4]octane 2,2-dioxide]	4.9 nM	18 nM	15 nM		

Second part, the molecule after the results:

EC50 ([1]; Mus musculus, 24 h)	EC50 ([2]; Mus musculus, 72 h)	Ki [3]	EC50 [2]	EC50 [1]	Compound
30 nM	270 nM	61 nM			O=S1(=O)CC2(CCN([C@@H]3CCC[C@H](c4ccc(C(F)(F)F)nc4)C3)CC2)C1 (single isomer, unassigned) [56A*]
320 nM	870 nM	170 nM			O=S1(=O)CC2(CCN([C@H]3CCC[C@H](c4ccc(C(F)(F)F)nc4)C3)CC2)C1 (single isomer, unassigned) [56B*]
19 nM	76 nM	140 nM			O=S1(=O)CC2(CCN([C@H]3CCC[C@@H](c4ccc(C(F)(F)F)nc4)C3)CC2)C1 (single isomer, unassigned) [56C*]
150 nM	690 nM	65 nM			O=S1(=O)CC2(CCN([C@@H]3CCC[C@@H](c4ccc(C(F)(F)F)nc4)C3)CC2)C1 (single isomer, unassigned) [56D*]
24 nM		160 nM	65 nM		O=S1(=O)CC2(CCN([C@@H]3CC[C@@H](c4ccc(C(F)(F)F)nc4)C3)CC2)C1 (single isomer, unassigned) [57A*]
		200 nM	160 nM	44 nM	O=S1(=O)CC2(CCN([C@@H]3CC[C@@H](c4ccc(C(F)(F)F)nc4)C3)CC2)C1 (single isomer, unassigned) [57B*]
16 nM	53 nM	120 nM			O=S1(=O)CC2(CCN([C@@H]3CC[C@H](c4ccc(C(F)(F)F)nc4)C3)CC2)C1 (single isomer, unassigned) [57C*]
18 nM	130 nM	150 nM			O=S1(=O)CC2(CCN([C@H]3CC[C@H](c4ccc(C(F)(F)F)nc4)C3)CC2)C1 (single isomer, unassigned) [57D*]
88 nM	190 nM	1180 nM			O=S1(=O)CC2(CCN(C3CC[C@H](c4nc(-c5cccc(C(F)(F)F)n5)nn4C4CC4)C3)CC2)C1 (stereo in doubt) [42C*, 7-((1S,3S)-3-(1-Cyclopropyl-3-(6-(trifluoromethyl)pyridin-2-yl)-1H-1,2,4-triazol-5-yl)cyclopentyl)-2-thia-7-azaspiro[3.5]nonane 2,2-dioxide]
45 nM	120 nM	670 nM			O=S1(=O)CC2(CCN(C3CC[C@H](c4nc(-c5cccc(C(F)(F)F)n5)nn4C4CC4)C3)CC2)C1 (stereo in doubt) [42D*, 7-((1R,3S)-3-(1-Cyclopropyl-3-(6-(trifluoromethyl)pyridin-2-yl)-1H-1,2,4-triazol-5-yl)cyclopentyl)-2-thia-7-azaspiro[3.5]nonane 2,2-dioxide]
8 nM	27 nM	125 nM			CCn1nc(-c2ccc(C(F)(F)F)nc2)nc1[C@H]1CC[C@H](N2CCC3(CC2)CS(=O)(=O)C3)CC1 (stereo in doubt) [43A*, (trans)-7-(-4-(1-Ethyl-3-(6-(trifluoromethyl)pyridin-3-yl)-1H-1,2,4-triazol-5-yl)cyclohexyl)-2-thia-7-azaspiro[3.5]nonane 2,2-dioxide]
80 nM	160 nM	510 nM			CCn1nc(-c2ccc(C(F)(F)F)nc2)nc1[C@H]1CC[C@@H](N2CCC3(CC2)CS(=O)(=O)C3)CC1 (stereo in doubt) [43B*, (cis)-7-(-4-(1-ethyl-3-(6-(trifluoromethyl)pyridin-3-yl)-1H-1,2,4-triazol-5-yl)cyclohexyl)-2-thia-7-azaspiro[3.5]nonane 2,2-dioxide]
4.4 nM	7.3 nM	22 nM			CC(C)n1nc(-c2ccc(C(F)(F)F)cc2)nc1[C@H]1CCC(N2CCC3(CC2)CS(=O)(=O)C3)C1 (stereo in doubt) [Compound 58A, 7-((1R,3S)-3-(1-Isopropyl-3-(4-(trifluoromethyl)phenyl)-1H-1,2,4-triazol-5-yl)cyclopentyl)-2-thia-7-azaspiro[3.5]nonane 2,2-dioxide]
2.3 nM	3.4 nM	21 nM			CC(C)n1nc(-c2ccc(C(F)(F)F)cc2)nc1[C@H]1CCC(N2CCC3(CC2)CS(=O)(=O)C3)C1 (stereo in doubt) [Compound 58B, 7-((1S,3S)-3-(1-isopropyl-3-(4-(trifluoromethyl)phenyl)-1H-1,2,4-triazol-5-yl)cyclopentyl)-2-thia-7-azaspiro[3.5]nonane 2,2-dioxide]
42 nM	270 nM	470 nM			O=S1(=O)CC2(CCN([C@H]3CC[C@@H](c4ccc(C(F)(F)F)nc4)CC3)CC2)C1 [81B*, 7-((1s,4s)-4-(6-(Trifluoromethyl)pyridin-3-yl)cyclohexyl)-2-thia-7-azaspiro[3.5]nonane 2,2-dioxide]
